Test results: patent publication US10889591B2, “PDE9 inhibitor and use thereof” (Nanjing TransThera Biosciences Co. Ltd., priority 2017, dated 2021)
Like-named read-outs stand apart in the source and are kept apart here. Each block holds one compound with its values, some of them ahead of it.

Legend:
[1] = Stability in human liver microsome; conditions: for k / Original drug residual % at 60 min / CLint / T1/2 (min): human liver microsome 0.5 mg protein/mL, compound 1 μM; for k: slope of log remaining amount versus time; for Original drug residual % at 60 min: β-NADPH 1 mM, 37° C.; for half-life at 1 μM: human, liver microsomes
[2] = in vitro; conditions: human, microsomes
[3] = human; for CLint: microsomes
[4] = Rat pharmacokinetic evaluation; assay type: in vivo, SD male rats; conditions: SD rat, intravenous bolus 1 mg/kg; for AUC(0-t) / clearance / half-life: male, Sprague-Dawley, plasma; for AUC(0-t): read-out: AUClast iv; for clearance: read-out: Cl_obs iv (clearance rate) (converted); for half-life: read-out: tz1/2 iv (terminal elimination half-life) (converted)
[5] = Rat pharmacokinetic evaluation; assay type: in vivo, SD male rats; conditions: male, Sprague-Dawley, plasma, SD rat; for Tmax / AUC(0-t) / half-life: po, intragastric 5 mg/kg; for Tmax: median; for AUC(0-t): read-out: AUClast po; for half-life: read-out: tz1/2 po (terminal elimination half-life) (converted); for bioavailability: dose iv/po 1/5 mg/kg, read-out: F % (absolute bioavailability)
Method: Experimental Example 4: Rat Pharmacokinetic Evaluation of the Compounds of the Invention
Aim: The in vivo pharmacokinetic parameters of the compounds in SD male rats (purchased from Beijing Vital River Animal Technology Co., Ltd.) were evaluated and bioavailability of the compounds was examined.
Animal Administration and Sample Collection:
The solution of compounds 65, 90, 107, 158 was intragastrically administered to SD rat at a dose of 5.0 mg/kg.
The experimental compound 76 was dissolved in 30% DMF+30% PEG400+40% saline to prepare a solution. The solution of compound 76 was intragastrically administered to SD rat at a dose of 5.0 mg/kg.
The experimental compound 76 was dissolved in 30% DMF+30% PEG400+40% saline to prepare a solution.
The experimental compounds 84 and 96 were dissolved in 5% DMSO+10% PEG400+85% (28% HP-β-CD) saline to prepare a solution. The solution of compounds 84 and 96 was intragastrically administered to SD rat at a dose of 5.0 mg/kg.
The experimental compounds 84 and 96 were dissolved in 5% DMSO+10% PEG400+85% (28% HP-β-CD) saline to prepare a solution.
The animals were fixed. The tail was heated with a water bath at 10 min before each time point. About 100 μL of blood from tail vein was collected, and then placed in an anti-coagulation tube containing EDTA-K2 after collection. Blood samples were centrifuged at 8000 rpm at 4° C. for 6 min to obtain plasma samples.
The concentration of test sample was output using Analyst 1.6.1 from AB SCIEX.

[6] = Canine pharmacokinetic evaluation; assay type: in vivo; conditions: Beagle dogs; for Vz_obs iv (apparent distribution volume) / AUC(0-inf) / half-life / bioavailability / clearance: n = 3; for Tmax / AUC(0-inf) / half-life / bioavailability / clearance: dog, plasma; for Tmax: n = 3, median; for clearance: read-out: Cl_obs iv (clearance rate) (converted)
From the text: 1. Animal Administration and Sample Collection
2. Sample Analysis Method
3. Data Processing Method

[7] = intravenous bolus 1 mg/kg, read-out: AUCinf iv
[8] = intravenous bolus 1 mg/kg, read-out: tz1/2 iv (terminal elimination half-life) (converted)

Structure (SMILES): COc1cc2c(N3CCC4(CCC4)CC3)c(C#N)c(=O)[nH]c2cn1 [Compound 66, 6-methoxy-2-oxo-4-(7-azaspiro[3.5]nonane-7-yl)-1,2-dihydro-1,7-naphthyridin-3-carbonitrile]
k [1]: -0.515 min⁻¹
Original drug residual % at 60 min [1]: 101%

CLint [1]: 0.0024 mL · min^−1 · mg^−1 proteins
k [1]: 0.0012 min⁻¹
Original drug residual % at 60 min [1]: 94.6%
half-life at 1 μM [1]: 9.63 h
Structure (SMILES): COC1(C)CCN(c2c(C#N)c(=O)[nH]c3cnccc23)CC1 [Compound 81, 4-(4-methoxy-4-methylpiperidin-1-yl)-2-oxo-1,2-dihydro-1,7-naphthyridin-3-carbonitrile]

CLint [1]: 0.0012 mL · min^−1 · mg^−1 proteins
k [1]: 0.191 min⁻¹
Original drug residual % at 60 min [1]: 93.4%
half-life at 1 μM [1]: 19.2 h
Structure (SMILES): N#Cc1c(N2CC[C@@H](n3cccn3)C2)c2ccncc2[nH]c1=O [Compound 19, (R)-4-(3-(1H-pyrazol-1-yl)pyrrolidin-1-yl)-2-oxo-1,2-dihydro-1,7-naphthyridin-3-carbonitrile]

Structure (SMILES): CC(C)(O)c1cc2c(N3CCC4(CCC4)CC3)c(C#N)c(=O)[nH]c2cn1 [Compound 82, 6-(2-hydroxypropan-2-yl)-2-oxo-4-(7-azaspiro[3.5]nonane-7-yl)-1,2-dihydro-1,7-naphthyridin-3-carbonitrile]
half-life [2]: 2.07 h
Original drug residual % at 60 min [3]: 72.4%
k [3]: 0.9760 min⁻¹
CLint [3]: 0.0112 mL · min^−1 · mg^−1 proteins

Structure (SMILES): N#Cc1c(N2CCC3(CC2)CC3)c2cc(C(O)CO)ncc2[nH]c1=O (stereo not drawn) [Compound 32, 6-(1,2-dihydroxyethyl)-2-oxo-4-(6-azaspiro[2.5]octane-6-yl)-1,2-dihydro-1,7-naphthyridin-3-carbonitrile]
T1/2 (min) [1]: →∞
k [1]: -0.3760 min⁻¹
Original drug residual % at 60 min [1]: 99.8%

CLint [1]: 0.1244 mL · min^−1 · mg^−1 proteins
k [1]: 0.727 min⁻¹
Original drug residual % at 60 min [1]: 5.19%
half-life at 1 μM [1]: 0.186 h
Structure (SMILES): N#Cc1c(Nc2ccc(Cl)cc2)c2ccncc2[nH]c1=O [Compound 18, 4-((4-chlorophenyl)amino)-2-oxo-1,2-dihydro-1,7-naphthyridin-3-carbonitrile]

Structure (SMILES): CNC(=O)c1cc2c(N3CCC4(CC3)CC4)c(C#N)c(=O)[nH]c2cn1 [Compound 96, 3-cyano-N-methyl-2-oxo-4-(6-azaspiro[2.5]octane-6-yl)-1,2-dihydro-1,7-naphthyridin-6-formamide]
Vz_obs iv (apparent distribution volume) [4]: 0.57 L/kg
AUC(0-t) [4]: 769 ng·h/mL
clearance [4]: 22 mL/min/kg
half-life [4]: 0.3 h

CLint [1]: 0.0020 mL · min^−1 · mg^−1 proteins
k [1]: 0.4444 min⁻¹
Original drug residual % at 60 min [1]: 91.9%
half-life at 1 μM [1]: 11.6 h
Structure (SMILES): COC1(C)CCN(c2c(C#N)c(=O)[nH]c3cnc(C(C)(C)O)cc23)CC1 [Compound 109, 6-(2-hydroxypropan-2-yl)-4-(4-methoxy-4-methylpiperidin-1-yl)-2-oxo-1,2-dihydro-1,7-naphthyridine-3-carbonitrile]

Structure (SMILES): N#Cc1c(N2CCC3(CC2)CC3)c2ncccc2[nH]c1=O [Compound 80, 2-oxo-4-(6-azaspiro[2.5]octane-6-yl)-1,2-dihydro-1,5-naphthyridin-3-carbonitrile]
half-life [2]: 0.792 h
Original drug residual % at 60 min [3]: 41.7%
k [3]: 0.9877 min⁻¹
CLint [3]: 0.0292 mL · min^−1 · mg^−1 proteins

Structure (SMILES): N#Cc1c(N2CCC3(CC2)CC3)c2cc(C(=O)O)ncc2[nH]c1=O [Compound 83, 3-cyano-2-oxo-4-(6-azaspiro[2.5]octane-6-yl)-1,2-dihydro-1,7-naphthyridin-6-carboxylic acid]
T1/2 (min) [1]: →∞
k [1]: 0.5421 min⁻¹
Original drug residual % at 60 min [1]: 104.1%

CLint [1]: 0.0026 mL · min^−1 · mg^−1 proteins
k [1]: 0.0013 min⁻¹
Original drug residual % at 60 min [1]: 92.6%
half-life at 1 μM [1]: 8.88 h
Structure (SMILES): COC1(C)CCN(c2c(C#N)c(=O)[nH]c3cnc(C)cc23)CC1 [Compound 158, 4-(4-methoxy-4-methylpiperidin-1-yl)-6-methyl-2-oxo-1,2-dihydro-1,7-naphthyridin-3-carbonitrile]

CLint [1]: 0.0038 mL · min^−1 · mg^−1 proteins
k [1]: 0.0019 min⁻¹
Original drug residual % at 60 min [1]: 88.2%
half-life at 1 μM [1]: 6.08 h
Structure (SMILES): COCCOc1cc2c(N3CCC(C)(OC)CC3)c(C#N)c(=O)[nH]c2cn1 [Compound 145, 4-(4-methoxy-4-methylpiperidin-1-yl)-6-(2-methoxyethoxy)-2-oxo-1,2-dihydro-1,7-naphthyridin-3-carbonitrile]

Structure (SMILES): N#Cc1c(N2CCC3(CCC3)CC2)c2cc(N3CC(O)C3)ncc2[nH]c1=O [Compound 51, 6-(3-hydroxyazetidin-1-yl)-2-oxo-4-(7-azaspiro[3.5]nonane-7-yl)-1,2-dihydro-1,7-naphthyridin-3-carbonitrile]
half-life [2]: 2.1 h
Original drug residual % at 60 min [3]: 74.1%
k [3]: 0.9418 min⁻¹
CLint [3]: 0.0110 mL · min^−1 · mg^−1 proteins

Structure (SMILES): CC(C)(O)c1cc2c(N3CCC4(CC3)CC4)c(C#N)c(=O)[nH]c2cn1 [Compound 84, 6-(2-hydroxypropan-2-yl)-2-oxo-4-(6-azaspiro[2.5]octane-6-yl)-1,2-dihydro-1,7-naphthyridin-3-carbonitrile]
Tmax [5]: 1 h
AUC(0-t) [5]: 7580 ng·h/mL
half-life [5]: 3.24 h
bioavailability [5]: 62.5%
Vz_obs iv (apparent distribution volume) [4]: 1.16 L/kg
AUC(0-t) [4]: 2430 ng·h/mL
clearance [4]: 8.17 mL/min/kg
half-life [4]: 1.89 h

Tmax [5]: 0.5 h
AUC(0-t) [5]: 1940 ng·h/mL
half-life [5]: 2.68 h
bioavailability [5]: 56.8%
Vz_obs iv (apparent distribution volume) ([6]; intravenous bolus 1 mg/kg): 2.05 L/kg
Tmax ([6]; po, intragastric 1 mg/kg): 0.5 h
AUC(0-inf) ([6]; po, intragastric 1 mg/kg, read-out: AUCinf po): 757 ng·h/mL
half-life ([6]; po, intragastric 1 mg/kg, read-out: tz1/2 po (terminal elimination half-life) (converted)): 2.56 h
bioavailability ([6]; dose iv/po 1/1 mg/kg): 61.5%
AUC(0-inf) [6, 7]: 1230 ng·h/mL
clearance ([6]; intravenous bolus 1 mg/kg): 16 mL/min/kg
half-life [6, 8]: 1.64 h
CLint [1]: 0.0046 mL · min^−1 · mg^−1 proteins
k [1]: 0.0023 min⁻¹
Original drug residual % at 60 min [1]: 88.5%
half-life at 1 μM [1]: 5.02 h
Vz_obs iv (apparent distribution volume) [4]: 2.13 L/kg
AUC(0-t) [4]: 748 ng·h/mL
clearance [4]: 24.2 mL/min/kg
half-life [4]: 1.25 h
Structure (SMILES): CCc1cc2c(N3CCC(C)(OC)CC3)c(C#N)c(=O)[nH]c2cn1 [Compound 107, 6-ethyl-4-(4-methoxy-4-methylpiperidin-1-yl)-2-oxo-1,2-dihydro-1,7-naphthyridin-3-carbonitrile]

Structure (SMILES): N#Cc1c(N2CCC3(CCC3)CC2)c2cc(N3CC(N)C3)ncc2[nH]c1=O [Compound 53, 6-(3-aminoazetidin-1-yl)-2-oxo-4-(7-azaspiro[3.5]nonane-7-yl)-1,2-dihydro-1,7-naphthyridin-3-carbonitrile]
half-life [2]: 10.5 h
Original drug residual % at 60 min [3]: 91.4%
k [3]: 0.4821 min⁻¹
CLint [3]: 0.0022 mL · min^−1 · mg^−1 proteins

Structure (SMILES): Cc1cc2c(N3CCC4(CCC4)CC3)c(C#N)c(=O)[nH]c2cn1 [Compound 65, 6-methyl-2-oxo-4-(7-azaspiro[3.5]nonane-7-yl)-1,2-dihydro-1,7-naphthyridin-3-carbonitrile]
Tmax [5]: 0.5 h
AUC(0-t) [5]: 3000 ng·h/mL
half-life [5]: 2.25 h
bioavailability [5]: 51.8%
Vz_obs iv (apparent distribution volume) ([6]; intravenous bolus 1 mg/kg): 0.66 L/kg
Tmax ([6]; po, intragastric 2 mg/kg): 0.5 h
AUC(0-inf) ([6]; po, intragastric 2 mg/kg, read-out: AUCinf po): 543 ng·h/mL
half-life ([6]; po, intragastric 2 mg/kg, read-out: tz1/2 po (terminal elimination half-life) (converted)): 0.47 h
bioavailability ([6]; dose iv/po 1/2 mg/kg): 25.5%
AUC(0-inf) [6, 7]: 1060 ng·h/mL
clearance ([6]; intravenous bolus 1 mg/kg): 15.7 mL/min/kg
half-life [6, 8]: 0.49 h
Vz_obs iv (apparent distribution volume) [4]: 1.75 L/kg
AUC(0-t) [4]: 1240 ng·h/mL
clearance [4]: 13.8 mL/min/kg
half-life [4]: 1.47 h
